Measured values published in US5380710A, “Pharmaceutical compositions containing ACTH (1-24) for the therapy of shock conditions and respiratory and cardiocirculatory insufficiences” (priority 1985, dated 1995).
Counter-ions that a name gives are not always drawn.

System: severe hypotension induced by bleeding (hypovolemic shock), intact rats
Assay: Hypovolemic shock by bleeding in intact rats: mean arterial pressure and survival
Type: in vivo, Wistar rats
Protocol: Intact and adrenalectomized female Wistar rats (Nossan, Correzzano, Milano, Italy) weighing 250 to 300 g, and intact male Beagle dogs (S. Morini, S. Polo d'Enza, Reggio Emilia, Italy) weighing 10 to 12 kg were used. Following anesthetization and heparinization a common carotid artery and an iliac vein were cannulated in rats, while in dogs a femoral artery and vein were used. Arterial blood pressure was recorded by means of a pressure transducer (Statham P23 Db) connected to a polygraph (Battaglia-Rangoni, Bologna, Italy). In some rats, trachea was cannulated and respiration was recorded by means of a transducer (Statham 10272) connected to the same polygraph. Hypovolemic shock was produced by intermittently withdrawing blood from the venous catheter until mean arterial pressure fell to 16-30 mm Hg. In rats, the volume of blood removed was 2-2.5 ml per 100 g of body weight and approximated to, or even exceeded, 50% of the estimated total blood volume; in dogs, the volume of blood removed was 50-60 ml per kg of body weight. Following bleeding and mean blood pressure stabilization in the range of 16-30 mm Hg, animals were given intravenous bolus of either ACTH (1-24) or naloxone.HCl.

With `C=CCN1CC[C@]23c4c5ccc(O)c4O[C@H]2C(=O)CC[C@@]3(O)[C@H]1C5` [Naloxone.HCl, naloxone.HCl] the “Mean arterial pressure before bleeding” value (intact rats (5), Naloxone.HCl 1 μg/kg i.v. group, baseline before treatment, m ± S.E.) was 64,60 ± 4,70 mm Hg, the “Mean arterial pressure after bleeding” value (intact rats (5), Naloxone.HCl 1 μg/kg i.v. group, before treatment, m ± S.E.) was 22,00 ± 3,15 mm Hg and the “No. of deaths 60 min. after treatment” value (intact rats (5), bled, 1 μg/kg i.v.) was 0. The “Mean arterial pressure 15-30 min. after treatment” value (intact rats (5), bled, 1 μg/kg i.v., m ± S.E.) was 58,20 ± 6,12 mm Hg and the “Effect on blood pressure after bleeding” value (rats, bled, 1 mg/kg i.v., within 30 minutes) was “completely restored blood pressure”.
